These results are taken from patent publication US4791139A, “Diphenyl ether derivatives and their use as insecticides” (Imperial Chemical Industries PLC, priority 1986, dated 1988).

Molecules are shown by their SMILES.

Holding throughout (format): in vivo
Test [1] concerns Meloidogyne incognita (Tomato root knot eelworm - larvae). Description: Residual test, Tomato root knot eelworm - larvae (MI), Semi in-vitro. The following applies: 168 h, application rate is half that recorded, 7 days, read-out: MI grading of mortality; for mortality at 125 µg/mL: rate 250 ppm; for mortality at 250 µg/mL: rate column 500 ppm.
For test [2], the system named is Nilaparvata lugens (brown plant hopper - nymphs). Description: Contact test, brown plant hopper - nymphs (NL), Rice plant. Conditions: 72 h, 3 days, read-out: NL grading of mortality. Put shortly: (§1)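 Each pest was kept on its food plant or foodstuff and exposed, directly or via the medium, to 100 to 500 ppm Product in water containing 0.1% by weight wetting agent. Kill was recorded over one to seven days.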

Test [3] concerns Spodoptera exigua (lesser army worm - larvae). Description: Residual test, lesser army worm - larvae (SP), Cotton leaf. Conditions: 72 h, 3 days, read-out: SP grading of mortality. Put shortly:
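Compound dissolved in acetone and diluted in water with 0.1% Synperonic NX wetting agent to 100–500 ppm. Pests on host plant or food, with pests and/or medium treated. Mortality assessed 1–7 days after treatment and graded A (80–100%), B (50–79%) or C (<50%).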

Test [4] concerns Tetranychus urticae (spider mites - adult). Description: Contact test, spider mites - adult (TUa), French bean leaf. The following applies: 72 h, 3 days, read-out: TUA grading of mortality. Put shortly:
as §1

The test system of test [5] is Tetranychus urticae (spider mites - ova). Description: Contact test, spider mites - ova (TUe), French bean leaf. The following applies: 144 h, 6 days, read-out: TUE grading of mortality. Put shortly: as §1
The subject of test [6] is Musca domestica (houseflies - adults). Description: Knockdown test, houseflies - adults (MD/KD), Cotton wool/sugar. Conditions: 4 hours, read-out: MD/KD grading of knockdown. The gist of the method: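 Product was dissolved in acetone and diluted with water containing 0.1% wetting agent to 100–500 ppm. The flies and/or their food medium were treated with the preparation. Mortality was scored 1–7 days after treatment, with an additional knockdown assessment for houseflies.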

Test [7] relates to Diabrotica balteata (rootworm larvae). Description: Residual test, rootworm larvae (DB), Filter paper/maize seed. The following applies: 72 h, 3 days, read-out: DB grading of mortality. The gist of the method:
as §1

Test [8] deals with Musca domestica (houseflies - adults). Description: Contact test, houseflies - adults (MD), Cotton wool/sugar. Conditions: 24 h, 1 day, read-out: MD grading of mortality. The gist of the method:
as §1

Test [9] has as its system Blattella germanica (cockroach nymphs). Description: Residual test, cockroach nymphs (BG), Plastic pot. The following applies: 72 h, 3 days, read-out: BG grading of mortality. The gist of the method: as §1
Test [10] has as its system Myzus persicae (aphids). Description: Contact test, aphids (MP), Chinese Cabbage leaf. Conditions: 72 h, 3 days, read-out: MP grading of mortality. The gist of the method: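 Aphids on a host plant and/or the plant itself were treated with 100–500 ppm of product, applied from acetone diluted in water containing 0.1% SYNPERONIC NX wetting agent. Mortality was scored usually one to seven days after treatment.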

For test [11], the system named is Heliothis virescens (tobacco budworm - larvae). Description: Residual test, tobacco budworm - larvae (HV), Cotton leaf. Conditions: 72 h, read-out: HV grading of mortality. The gist of the method: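 Products applied as acetone solutions diluted in water with 0.1% wetting agent, at 100–500 ppm; pests on host plant or food, with pests and/or medium treated. Mortality or knockdown scored 1–7 days after treatment and graded A (80–100%), B (50–79%) or C (<50%).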

A word on the mortality: it is the percentage killed. In the case of `FC(F)(F)Oc1ccc(C(Cl)(CCCc2cccc(Oc3ccccc3)c2)C(F)(F)F)cc1` (racemic) [Compound 62, 1,1,1-trifluoro-2-chloro-2-(4-trifluoromethoxyphenyl)-5-(3-phenoxyphenyl)pentane], the mortality at 125 µg/mL in test [1] was under 50%. Also, the mortality at 250 ppm in test [2], in test [3], in [4], in test [5], in [7] and in [8] was under 50% each time. Moreover, the mortality at 250 ppm in test [9], in test [10] and in test [11] was under 50% in each case. Also, the pest or weed control at 250 ppm in test [6] is under 50%.

For the compound `Fc1cc(Br)c(C(=CC=Cc2cccc(Oc3ccccc3)c2)C(F)(F)F)c(F)c1OC(F)(F)F` [Compound 74, 1,1,1-Trifluoro-2-(2-bromo-4,6-difluoro-5-trifluoromethoxyphenyl)-5-(3-phenoxyphenyl)penta-2,4-diene], the mortality at 250 µg/mL in test [1] is under 50%. In addition, the mortality at 500 ppm in test [2] was under 50%; in test [3] it was under 50%; in test [4] it was 50 to 79%; in test [5], under 50%; in test [7] it was under 50%; in test [8], under 50%. In addition, the mortality at 500 ppm in test [9], in test [10] and in test [11] was under 50% in each case. For the same compound, the pest or weed control at 500 ppm in [6] is under 50%.

Consider `Fc1ccc(C(CCCc2cccc(Oc3ccccc3)c2)C(F)(F)F)cc1` (racemic) [Compound 53, 1,1,1-Trifluoro-2-(4-fluorophenyl)-5-(3-phenoxyphenyl)pentane], for which the mortality at 125 µg/mL in test [1] is under 50%. The mortality at 250 ppm is 80 to 100% in [2]; 80 to 100% in test [3]; 80 to 100% in test [4]; under 50% in [5]; 80 to 100% in test [7]; 80 to 100% in [8]. Besides, the mortality at 250 ppm in test [9], in test [10] and in [11] was 80 to 100% each time. The pest or weed control at 250 ppm in test [6] is under 50%.

On to `COCc1ccc(C(CCCc2cccc(Oc3ccccc3)c2)C(F)(F)F)cc1` (racemic) [Compound 45, 1,1,1-Trifluoro-2-(4-methoxymethylphenyl)-5-(3-phenoxyphenyl)pentane], for which the mortality at 250 µg/mL in test [1] is under 50%. Besides, the mortality at 500 ppm in test [2] was 80 to 100%; in [3] it was 80 to 100%; in [4], under 50%; in test [5], under 50%; in test [7], 80 to 100%; in test [8], 80 to 100%. For the same compound, the values for the mortality at 500 ppm in test [9], in test [10] and in test [11] were under 50%, under 50% and 80 to 100%, respectively. Moreover, the pest or weed control at 500 ppm in [6] was in the range of 80 to 100%.

As to `CCOc1ccc(C(CCC(C#N)c2cccc(Oc3ccccc3)c2)C(F)(F)F)cc1` (racemic) [Compound 54, 1,1,1-Trifluoro-2-(4-ethoxyphenyl)-5-cyano-5-(3-phenoxyphenyl)pentane], the mortality at 250 µg/mL in test [1] was under 50%. Moreover, the mortality at 500 ppm in [2] was 80 to 100%; in test [3], 80 to 100%; in test [4] it was under 50%; in test [5], under 50%; in [7] it was under 50%; in [8] it was 80 to 100%. Also, the mortality at 500 ppm in test [9] was under 50%; in test [10] it was 80 to 100%; in test [11], 80 to 100%. In addition, in test [6], the pest or weed control at 500 ppm lay within 80 to 100%.

Turning to `CCOc1ccc(C(=CC=Cc2cccc(Oc3ccccc3)c2)C(F)F)cc1` [Compound 65, 1,1-Difluoro-2-(4-ethoxyphenyl)-5-(3-phenoxyphenyl)penta-2,4-diene], the mortality at 250 µg/mL in test [1] was under 50%. The mortality at 500 ppm in test [2], in test [3], in [4], in [5], in test [7] and in test [8] was under 50% in each case. For the same compound, the mortality at 500 ppm in [9], in test [10] and in [11] was under 50% in each case. The pest or weed control at 500 ppm in test [6] was under 50%.

Consider `CCOc1ccc(C(CC=Cc2c(F)c(F)c(F)c(F)c2F)C(F)(F)F)cc1` (stereo not drawn) [Compound 42, 1,1,1-Trifluoro-2-(4-ethoxyphenyl)-5-(pentafluorophenyl)pent-4-ene], for which the mortality at 250 µg/mL in test [1] was under 50%. Besides, the mortality at 500 ppm in test [2] was under 50%; in [3], under 50%; in test [4], under 50%; in test [5], under 50%; in test [7], 80 to 100%; in test [8], under 50%. Also, the mortality at 500 ppm in test [9], in test [10] and in test [11] was under 50% each time. Also, the pest or weed control at 500 ppm in test [6] was under 50%.

Consider `Fc1cc(C(CCCc2cccc(Oc3ccccc3)c2)C(F)(F)F)cc(F)c1OC(F)(F)F` (racemic) [Compound 71, 1,1,1-Trifluoro-2-(3,5-difluoro-4-trifluoromethoxyphenyl)-5-(3-phenoxyphenyl)pentane], for which the mortality at 250 µg/mL in [1] is 70 to 100%. For the same compound, the mortality at 500 ppm in test [2] was 50 to 79%; in [3], 80 to 100%; in [4] it was under 50%; in [5], under 50%; in test [7], 80 to 100%; in [8], under 50%. The mortality at 500 ppm is under 50% in [9], 80 to 100% in [10] and 80 to 100% in test [11]. Also, the pest or weed control at 500 ppm in [6] is under 50%.

Regarding `CCOc1c(F)cc(C(CCCc2cccc(Oc3ccccc3)c2)C(F)(F)F)cc1F` (racemic) [Compound 57, 1,1,1-Trifluoro-2-(3,5-difluoro-4-ethoxyphenyl)-5-(3-phenoxyphenyl)pentane], the mortality at 250 µg/mL in test [1] is under 50%. Besides, the mortality at 500 ppm in test [2], in [3], in test [4], in test [5], in [7] and in [8] was 80 to 100% each time. The mortality at 500 ppm in test [9], in test [10] and in test [11] was 80 to 100% each time. The pest or weed control at 500 ppm in test [6] lay in the range of 80 to 100%.
